Reference: patent publication US5324725A, “7-fused 2-(piperazinoalkyl) indole derivatives, intermediates and compositions thereof” (Kali-Chemie Pharma GmbH, priority 1991, dated 1994)

What was measured:
[1] = tested on: Passive cutaneous anaphylaxis (P.C.A.); assay: Inhibition of passive cutaneous anaphylaxis (P.C.A.); assay type: in vivo, rat (Sprague-Dawley); conditions: Rattus norvegicus, 1 h; rats, 2 × 10^-5 mol/kg p.o., one hour before ovalbumin challenge
Outline: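 Sprague-Dawley rats (150-180 g) were sensitized intradermally with rat IgE-rich anti-ovalbumin serum and challenged 24 h later with i.v. ovalbumin 8.25 mg/kg plus Evans blue. Compound was given orally at 2×10^-5 mol/kg 1 h before challenge. Dye exudation was scored visually at 30 min as % inhibition versus vehicle controls.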

[2] = Determination of the minimum toxic dose; parameters: species or system male mice; conditions: mouse, in vivo, po, 300 mg/kg, 1440 min
Method: 2. Determination of the minimum toxic dose.
Maximum doses of 300 mg/kg of the test substance were administered orally to male mice weighing 20-25 g. The animals were observed carefully for 3 hours for toxicity symptoms. In addition, all symptoms and deaths over a period of 24 hours after administration were recorded. Associated symptoms were also observed and recorded. If death or severe toxic symptoms were observed, further mice were administered increasingly lower doses. The lowest dose which caused death or severe toxic symptoms is given as the minimum toxic dose in the following Table B.

Compound	inhibition in vivo at 20 µmol/kg [1] [%]	Minimum toxic dose (lowest dose which caused death or severe toxic symptoms) [2] [mg/kg]
Cc1ccnc(N2CCN(CCc3c(C)n4c5c(cccc35)CCC4c3ccccc3)CC2)c1 (stereo not shown) [Example 3, 5,6-dihydro-2-methyl-4-phenyl-1-{2-[4-(4-methylpyridine-2-yl)piperazin-1-yl]-ethyl}-4H-pyrrolo[3,2,1-ij]quinoline]	100	300
Cc1ccc(N2CCN(CCc3c(C)n4c5c(cccc35)CCC4)CC2)nc1 [Example 42]	50	100
Cc1ccnc(N2CCN(CCc3c(C)n4c5c(cccc35)C(C)CC4)CC2)c1 (stereo not shown) [Example 57]	100	300
Cc1ccnc(N2CCN(CCc3c(C)n4c5c(cccc35)CCC4)CC2)c1 [Example 1, 5,6-Dihydro-2-methyl-1-{2-[4-(4-methylpyridin-2-yl)piperazin-1-yl]ethyl}-4H-pyrrolo[3,2,1-ij]quinoline]	98	100
Cc1ccnc(N2CCN(CCc3c(C)n4c5c(ccc(Cl)c35)OCC4)CC2)c1 [Example 35]	75	300
Cc1ccnc(N2CCN(CCc3c(C)n4c5c(cc(C)cc35)CCC4)CC2)c1 [Example 54]	93	300
Cc1cc2c3c(c1)c(CCN1CCC(C(=O)c4ccc(F)cc4)CC1)c(C)n3CCC2 [Example 55]	80	300
CCc1c(C(O)CN2CCN(c3cc(C)ccn3)CC2)c2cccc3c2n1CCC3 (stereo not shown) [Example 14, 2-Ethyl-5,6-dihydro-1-{2-[4-(4-methylpyridin-2-yl)piperazin-1-yl]-1-hydroxyethyl}-4H-pyrrolo[3,2,1-ij]quinoline]	65	300
